Data published in US9765105B2, “Macrolide compound” (Pulike Biological Engineering, Inc., priority 2013, dated 2017).

Columns and labels:
Experiment in all cases: in vitro susceptibility, MIC by mini broth dilution
Assay type in all cases: cell-based
[1] = system: Staphylococcus aureus CVCC26003; conditions: strain CVCC26003
In short: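 S. aureus CVCC26003 was revived and subcultured twice, 20 h each at 35° C, on solid medium, then diluted 1:200 in CAMHB liquid medium. Compounds received an 11-step two-fold DMSO dilution in parallel duplicate rows. MIC was read by mini broth dilution per NCCLS guidance.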

[2] = system: Actinobacillus pleuropneumoniae CVCC262; conditions: strain CVCC262
In short: (§1)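 NCCLS-based mini broth dilution; inoculum from twice-streaked 35° C/20 h cultures, 1:200 in broth; compound two-fold series in DMSO, 11 steps, duplicates.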

[3] = system: Haemophilus parasuis
In short: as §1

[4] = system: Pasteurella multocida CVCC399; conditions: strain CVCC399
In short: as §1

[5] = system: Streptococcus equines CVCC556; conditions: strain CVCC556
In short: as §1

SMILES | MIC values, Staphylococcus aureus CVCC26003 [1] | MIC values, Actinobacillus pleuropneumoniae CVCC262 [2] | MIC values, Haemophilus parasuis [3] | MIC values, Pasteurella multocida CVCC399 [4] | MIC values, Streptococcus equines CVCC556 [5]
CC[C@H]1OC(=O)[C@H](C)[C@@H](O[C@H]2C[C@@](C)(OC)[C@](O)(CNC(=O)C(F)(F)F)[C@H](C)O2)[C@H](C)[C@@H](O[C@@H]2O[C@H](C)C[C@H](N(C)C)[C@H]2O)[C@](C)(O)C[C@@H](C)NC[C@H](C)[C@@H](O)[C@]1(C)O [syzx-37, (2R,3S,4R,5S,8R,10R,11R,12S,13S,14R)-13-[(2,6-dideoxy-3-C-methyl-3-O-methyl-4-C-[[2,2,2-trifluoroacetyl-amino]-methyl]-α-L-ribopyranosyl)oxy]-2-ethyl-3,4,10-trihydroxy-3,5,8,10,12,14-hexamethyl-11-[[3,4,6-trideoxy-3-(dimethylamino)-β-D-xylo-hexopyranosy]oxy]-1-oxa-7-azacyclopentadecan-15-one] | 0.5 ug/mi | 32 ug/mi | 0.5 ug/mi | 1 ug/mi | ≦0.25 ug/mi
CC[C@H]1OC(=O)[C@H](C)[C@@H](O[C@H]2C[C@@](C)(OC)[C@](O)(CNc3ccnc(Cl)c3)[C@H](C)O2)[C@H](C)[C@@H](O[C@@H]2O[C@H](C)C[C@H](N(C)C)[C@H]2O)[C@](C)(O)C[C@@H](C)NC[C@H](C)[C@@H](O)[C@]1(C)O [syzx-38] | 1 ug/mi | 32 ug/mi | 0.5 ug/mi | 0.5 ug/mi | 0.5 ug/mi
CCC1OC(=O)C(C)C(OC2CC(C)(OC)C(O)(CNCNCc3ccc(C=O)cc3)C(C)O2)C(C)C(OC2OC(C)CC(N(C)C)C2O)C(C)(O)CC(C)NCC(C)C(O)C1(C)O [syzx-39, (2R,3S,4R,5S,8R,10R,11R,12S,13S,14R)-13-[(2,6-dideoxy-3-C-methyl-3-O-methyl-4-C-[[[(4-formyl-benzyl-amino)-methyl]amino]-methyl]-α-L-ribopyranosyl)oxy]-2-ethyl-3,4,10-trihydroxy-3,5,8,10,12,14-hexamethyl-11-[[3,4,6-trideoxy-3-(dimethylamino)-β-D-xylo-hexopyranosy]oxy]-1-oxa-7-azacyclopentadecan-15-one] | 0.25 ug/mi | 0.25 ug/mi | 0.25 ug/mi | 0.5 ug/mi | 0.5 ug/mi
C#CCNC[C@]1(O)[C@H](C)O[C@@H](O[C@H]2[C@H](C)[C@@H](O[C@@H]3O[C@H](C)C[C@H](N(C)C)[C@H]3O)[C@](C)(O)C[C@@H](C)NC[C@H](C)[C@@H](O)[C@](C)(O)[C@@H](CC)OC(=O)[C@@H]2C)C[C@@]1(C)OC [syzx-40, (2R,3S,4R,5S,8R,10R,11R,12S,13S,14R)-13-[(2,6-dideoxy-3-C-methyl-3-O-methyl-4-C-[[propargyl-amino]-methyl]-α-L-ribopyranosyl)oxy]-2-ethyl-3,4,10-trihydroxy-3,5,8,10,12,14-hexamethyl-11-[[3,4,6-trideoxy-3-(dimethylamino)-β-D-xylo-hexopyranosy]oxy]-1-oxa-7-azacyclopentadecan-15-one] | 0.5 ug/mi | 16 ug/mi | 0.5 ug/mi | 1 ug/mi | 0.5 ug/mi
CCC(NC[C@]1(O)[C@H](C)O[C@@H](O[C@H]2[C@H](C)[C@@H](O[C@@H]3O[C@H](C)C[C@H](N(C)C)[C@H]3O)[C@](C)(O)C[C@@H](C)NC[C@H](C)[C@@H](O)[C@](C)(O)[C@@H](CC)OC(=O)[C@@H]2C)C[C@@]1(C)OC)C(=O)O (stereo partly drawn) [syzx-41, (2R,3S,4R,5S,8R,10R,11R,12S,13S,14R)-13-[(2,6-dideoxy-3-C-methyl-3-O-methyl-4-C-[[butyrate-2-amino]-methyl]-α-L-ribopyranosyl)oxy]-2-ethyl-3,4,10-trihydroxy-3,5,8,10,12,14-hexamethyl-11-[[3,4,6-trideoxy-3-(dimethylamino)-β-D-xylo-hexopyranosy]oxy]-1-oxa-7-azacyclopentadecan-15-one] | 2 ug/mi | 1 ug/mi | 1 ug/mi | 4 ug/mi | 0.5 ug/mi
CC[C@H]1OC(=O)[C@H](C)[C@@H](O[C@H]2C[C@@](C)(OC)[C@](O)(CNCCCC(=O)O)[C@H](C)O2)[C@H](C)[C@@H](O[C@@H]2O[C@H](C)C[C@H](N(C)C)[C@H]2O)[C@](C)(O)C[C@@H](C)NC[C@H](C)[C@@H](O)[C@]1(C)O [syzx-42, (2R,3S,4R,5S,8R,10R,11R,12S,13S,14R)-13-[(2,6-dideoxy-3-C-methyl-3-O-methyl-4-C-[[butyrate-4-amino]-methyl]-α-L-ribopyranosyl)oxy]-2-ethyl-3,4,10-trihydroxy-3,5,8,10,12,14-hexamethyl-11-[[3,4,6-trideoxy-3-(dimethylamino)-β-D-xylo-hexopyranosy]oxy]-1-oxa-7-azacyclopentadecan-15-one] | 2 ug/mi | 1 ug/mi | 1 ug/mi | 2 ug/mi | 1 ug/mi
CC[C@H]1OC(=O)[C@H](C)[C@@H](O[C@H]2C[C@@](C)(OC)[C@](O)(CNCCCO)[C@H](C)O2)[C@H](C)[C@@H](O[C@@H]2O[C@H](C)C[C@H](N(C)C)[C@H]2O)[C@](C)(O)C[C@@H](C)NC[C@H](C)[C@@H](O)[C@]1(C)O [syzx-46, (2R,3S,4R,5S,8R,10R,11R,12S,13S,14R)-13-[(2,6-dideoxy-3-C-methyl-3-O-methyl-4-C-[(3-hydroxy-propylamino)-methyl]-α-L-ribopyranosyl)oxy]-2-ethyl-3,4,10-trihydroxy-3,5,8,10,12,14-hexamethyl-11-[[3,4,6-trideoxy-3-(dimethylamino)-β-D-xylo-hexopyranosy]oxy]-1-oxa-7-azacyclopentadecan-15-one] | 1 ug/mi | 32 ug/mi | ≦0.25 ug/mi | 4 ug/mi | 2 ug/mi
